Measurements: PubChem BioAssay (NCI)
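Briefly, cells in 96-well plates were exposed to five compound concentrations for 48 h, and endpoints were estimated by linear interpolation. TGI: concentration producing complete growth inhibition.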

Legend:
Assay in all cases: growth of human tumour cells (NCI), 48 h
[1] = test system: 786-0 renal
[2] = test system: A498 renal
[3] = test system: A549 NSCLC
[4] = test system: ACHN renal
[5] = test system: BT-549 breast
[6] = test system: CAKI-1 renal
[7] = test system: COLO 205 colon
[8] = test system: DLD-1 colon
[9] = test system: DMS 114 small cell lung
[10] = test system: DMS 273 small cell lung
[11] = test system: DU-145 prostate
[12] = test system: EKVX NSCLC
[13] = test system: HCC-2998 colon
[14] = test system: HCT-116 colon
[15] = test system: HCT-15 colon
[16] = test system: HL-60(TB) leukemia
[17] = test system: HOP-18 NSCLC
[18] = test system: HOP-62 NSCLC
[19] = test system: HOP-92 NSCLC
[20] = test system: HS 578T breast
[21] = test system: HT29 colon
[22] = test system: IGROV1 ovarian
[23] = test system: K-562 leukemia
[24] = test system: KM12 colon
[25] = test system: KM20L2 colon
[26] = test system: LOX IMVI melanoma
[27] = test system: LXFL 529 NSCLC
[28] = test system: M14 melanoma
[29] = test system: M19-MEL melanoma
[30] = test system: MALME-3M melanoma
[31] = test system: MCF7 breast
[32] = test system: MDA-MB-231 breast
[33] = test system: MDA-MB-435
[34] = test system: MDA-N
[35] = test system: MOLT-4 leukemia
[36] = test system: NCI-H226 lung
[37] = test system: NCI-H23 lung
[38] = test system: NCI-H460 lung
[39] = test system: NCI-H522 lung
[40] = test system: OVCAR-3 ovarian
[41] = test system: OVCAR-4 ovarian
[42] = test system: OVCAR-5 ovarian
[43] = test system: OVCAR-8 ovarian
[44] = test system: PC-3 prostate
[45] = test system: RPMI-8226 leukemia
[46] = test system: RXF 393 renal
[47] = test system: RXF-631 renal
[48] = test system: SF-268 CNS
[49] = test system: SF-295 CNS
[50] = test system: SF-539 CNS
[51] = test system: SK-MEL-2 melanoma
[52] = test system: SK-MEL-28 melanoma
[53] = test system: SK-MEL-5 melanoma
[54] = test system: SK-OV-3 ovarian
[55] = test system: SN12C renal
[56] = test system: SNB-19 CNS
[57] = test system: SNB-75 CNS
[58] = test system: SNB-78 CNS
[59] = test system: SR leukemia
[60] = test system: SW-620 colon
[61] = test system: T-47D breast
[62] = test system: TK-10 renal
[63] = test system: U251 CNS
[64] = test system: UACC-257 melanoma
[65] = test system: UACC-62 melanoma
[66] = test system: UO-31 renal

SMILES: O=C1C=CC(=O)c2ccc(=O)ccc21
- TGI [1]: 32.8 µM
- TGI [2]: 41.6 µM
- TGI [3]: 64.2 µM
- TGI [4]: 23.5 µM
- TGI [5]: 31.9 µM
- TGI [6]: 21 µM
- TGI [7]: 18.9 µM
- TGI [8]: 15.6 µM
- TGI [9]: 33.9 µM
- TGI [10]: 58.1 µM
- TGI [11]: 59.9 µM
- TGI [12]: 50.7 µM
- TGI [13]: 31.3 µM
- TGI [14]: 31.6 µM
- TGI [15]: 35.8 µM
- TGI [16]: 15.8 µM
- TGI [17]: 39.1 µM
- TGI [18]: 51.5 µM
- TGI [19]: 3.72 µM
- TGI [20]: > 100 µM
- TGI [21]: 50.5 µM
- TGI [22]: 33.6 µM
- TGI [23]: 14.6 µM
- TGI [24]: 37.4 µM
- TGI [25]: 46.2 µM
- TGI [26]: > 54.1 µM
- TGI [27]: 11.1 µM
- TGI [28]: 31.1 µM
- TGI [29]: 25.5 µM
- TGI [30]: 39.6 µM
- TGI [31]: > 100 µM
- TGI [32]: 45.5 µM
- TGI [33]: 46 µM
- TGI [34]: 28.8 µM
- TGI [35]: 5.69 µM
- TGI [36]: 58.9 µM
- TGI [37]: 45.5 µM
- TGI [38]: 43.2 µM
- TGI [39]: 5.82 µM
- TGI [40]: 26.7 µM
- TGI [41]: 27.8 µM
- TGI [42]: 35 µM
- TGI [43]: 64.5 µM
- TGI [44]: 33 µM
- TGI [45]: > 29.7 µM
- TGI [46]: 16.3 µM
- TGI [47]: 42.3 µM
- TGI [48]: 32.9 µM
- TGI [49]: 37.1 µM
- TGI [50]: 43.5 µM
- TGI [51]: 34.8 µM
- TGI [52]: 42.6 µM
- TGI [53]: 38.3 µM
- TGI [54]: 48.8 µM
- TGI [55]: 32.2 µM
- TGI [56]: 27.1 µM
- TGI [57]: 39 µM
- TGI [58]: 64.5 µM
- TGI [59]: 6.3 µM
- TGI [60]: 14.4 µM
- TGI [61]: 5.55 µM
- TGI [62]: 33.9 µM
- TGI [63]: 30.1 µM
- TGI [64]: 30.4 µM
- TGI [65]: 29.9 µM
- TGI [66]: 22.1 µM
